From PubChem BioAssay (NCI)
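Growth conditions: 96-well plates. Treatment: test compound, 48 hours, 5 concentrations. Analysis: linear interpolation between bracketing concentrations; unreached endpoints set to highest concentration. TGI denotes the concentration required for complete inhibition of growth.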

Tests used:
Experiment in all cases: growth of human tumour cells (NCI), 48 h
A549 NSCLC = tested on: A549 NSCLC
HOP-92 NSCLC = tested on: HOP-92 NSCLC
T-47D breast = tested on: T-47D breast
MOLT-4 leukemia = tested on: MOLT-4 leukemia
OVCAR-5 ovarian = tested on: OVCAR-5 ovarian
SN12C renal = tested on: SN12C renal
COLO 205 colon = tested on: COLO 205 colon
UACC-257 melanoma = tested on: UACC-257 melanoma
NCI-H522 lung = tested on: NCI-H522 lung
SF-295 CNS = tested on: SF-295 CNS

Row | SMILES | TGI (A549 NSCLC) [µM] | TGI (HOP-92 NSCLC) [µM] | TGI (T-47D breast) [µM] | TGI (MOLT-4 leukemia) [µM] | TGI (OVCAR-5 ovarian) [µM] | TGI (SN12C renal) [µM] | TGI (COLO 205 colon) [µM] | TGI (UACC-257 melanoma) [µM] | TGI (NCI-H522 lung) [µM] | TGI (SF-295 CNS) [µM]
1 | Cn1c([O-])nc(-n2cc[n+](C)c2)cc1=O | > 100 | > 100 | > 100 | > 100 | > 100 | > 100 | > 100 | > 100 | – | –
2 | c1ccc(/C(=N/Nc2ccccn2)c2ncccn2)cc1 | > 76.9 | > 34.5 | > 100 | – | > 100 | > 100 | > 71.2 | – | 0.679 | > 44.6
3 | CC1CC(=O)Nc2nc3ccccc3n21 (centres undefined) | > 100 | > 100 | > 100 | > 100 | > 100 | – | > 100 | > 100 | > 100 | > 100
4 | NC(N)=Nc1ncccc1[N+](=O)[O-] | > 100 | > 100 | – | > 100 | > 100 | > 100 | 57.2 | > 31.6 | > 100 | > 100
5 | CC(=O)OCC(OC(C)=O)C1C[C@H]2O[C@@H]3[C@H](C[C@H]2O1)O[C@@]1(C[C@@H]3C)C[C@H](C)[C@@H]2O[C@]3(C[C@@H]2O1)C[C@H]1O[C@H]2[C@H](C)[C@H]4OC(=O)CC5CC[C@H]6OC7[C@H]8O[C@]9(CC[C@H]%10CC(O)(CO)[C@H](CC[C@H]%11C[C@@H](C)C(O)(CO)C(C[C@@H]4O[C@H]2C[C@H]1O3)O%11)O%10)CC8O[C@@H]7[C@@H](O9)[C@H]6O5 (some centres undefined) | > 1 | > 1 | – | > 1 | > 1 | > 1 | 0.0696 | > 1 | 0.00451 | > 0.301
6 | O=C(N/N=C/c1ccco1)c1cc(I)cc(I)c1O | > 50 | > 50 | > 50 | > 50 | 40.9 | 38.7 | 45.6 | – | > 50 | –
7 | Cc1nc(C)c(Cc2ccccc2)o1 | > 100 | – | > 100 | > 100 | > 100 | > 100 | > 100 | > 100 | > 100 | > 100
8 | COC1(OC)CCCCC2c3cccc(OC(C)=O)c3C21OC(C)=O (centres undefined) | > 100 | – | – | > 100 | > 100 | > 100 | > 100 | > 100 | > 100 | > 100
9 | CCOC(=O)C(CC#Cc1ccc(C#CCC(NC(C)=O)C(=O)OCC)cc1)NC(C)=O (centres undefined) | > 100 | – | > 100 | > 100 | > 100 | > 100 | > 100 | > 100 | > 100 | > 100
10 | FC(F)(F)c1ccc2nc3n(c2c1)C(c1c(Cl)cccc1Cl)SC3 (centres undefined) | 29.5 | 17.7 | 26.9 | > 100 | 30.4 | 32.7 | – | 29.3 | 29.7 | 30.3
11 | Cc1nn(-c2cc(Cl)ccc2[N+](=O)[O-])c(C)c1Cl | > 100 | – | > 100 | > 100 | > 100 | > 100 | > 100 | > 100 | > 100 | > 100
12 | Cc1cn(C(C)OCCN2C(=O)c3ccccc3C2=O)c(=O)[nH]c1=O (centres undefined) | > 100 | > 100 | > 100 | > 100 | > 100 | > 100 | > 100 | > 100 | – | > 100
13 | COC(=O)c1ccc(C=Nc2ccc(S(N)(=O)=O)cc2)cc1 | > 100 | > 100 | > 100 | > 100 | > 100 | > 100 | > 100 | > 100 | – | > 100
14 | CN(C)S(=O)(=O)Nc1nnc(S(N)(=O)=O)s1 | > 100 | > 100 | > 100 | > 100 | > 100 | – | > 100 | – | > 100 | > 100
15 | OC1(c2ccc(Cl)cc2)c2ccc3ccccc3c2C2=N[C@H]3CCCC[C@@H]3N21 (some centres undefined) | > 100 | 77.3 | 26.5 | > 100 | 57.2 | > 100 | > 100 | – | > 100 | 18.1
16 | NC1CNC(=O)c2c(Cl)sc(Cl)c21 (centres undefined) | > 100 | > 100 | > 100 | > 100 | > 100 | > 100 | > 100 | > 100 | – | > 100
17 | O=C(O)C(CO)NC(=O)n1c2ccccc2c2ccccc21 (centres undefined) | > 100 | > 100 | – | > 100 | – | > 100 | > 100 | > 100 | > 100 | > 100
18 | O=c1oc2cc(O)ccc2c(O)c1C(c1ccc(C(c2c(O)c3ccc(O)cc3oc2=O)c2c(O)c3ccc(O)cc3oc2=O)cc1)c1c(O)c2ccc(O)cc2oc1=O | > 100 | > 100 | > 100 | > 100 | > 100 | > 100 | > 100 | > 100 | – | > 100
19 | O=C(CC1=NCCN1)c1ccccc1 | > 285 | > 750 | – | > 750 | > 750 | > 750 | > 750 | > 750 | > 750 | > 750
20 | CN(C)CCn1c(=O)c2ccc(NCCCN(C)CCCNc3ccc4c(=O)n(CCN(C)C)c(=O)n5c6ccc([N+](=O)[O-])cc6c(=O)c3c45)c3c(=O)c4cc([N+](=O)[O-])ccc4n(c1=O)c23 | 0.308 | 0.198 | > 100 | – | 1.1 | 0.165 | 0.204 | 2.13 | 0.134 | 0.594
21 | O=c1[nH]nc(-c2ccccc2)c2[nH]c(-c3ccccc3)cc12 | > 100 | > 100 | > 100 | > 100 | > 100 | > 100 | > 100 | – | – | > 100
22 | Brc1cccc(N=NN2CCCC2)c1 | – | > 100 | > 100 | > 100 | > 100 | > 100 | > 100 | > 100 | > 100 | > 100
23 | O=C(O)C(CS)N=c1c2ccccc2n(O)c2ccccc12 (centres undefined) | > 100 | – | – | > 100 | > 100 | > 100 | > 100 | > 100 | > 100 | > 100
